Experimental data published in US8846698B2, “Pyrrolo[2,3-d]pyrimidine tropomysin-related kinase inhibitors” (Pfizer Limited, priority 2011, dated 2014).
pIC50: −log10 of the molar value. Where two headings read alike, the source gives them in different places.

Columns and labels:
TRKA [1] = molecular target: T1, TRKA (Homo sapiens (Human), UniProt P04629); assay: Cell based DiscoveRx PathHunter antagonist assay, TRKA cell line; settings: read-out: TrkA cell potency
Protocol: (§1) After the Detection Reagent addition, plates are covered and incubated at room temperature for 60 minutes. […] Test compound data are expressed as percentage inhibition defined by HPE and ZPE values for each plate. Percentage inhibition in the presence of test compound is plotted against compound concentration on a log scale to determine an IC50 from the resultant sigmoid curve. Cell Based Assays were carried out using Cell lines from DiscoveRx utilising their PathHunter technology and reagents in an antagonist assay:
(§2) The assays are based upon DiscoveRx's proprietary Enzyme Fragment Complementation (EFC) technology. In the case of the TRK cell lines, the enzyme acceptor (EA) protein is fused to a SH2 protein and the TRK receptor of interest has been tagged with a Prolink tag.
(§3) Upon neurotrophin binding, the TRK receptor becomes phosphorylated, and the tagged SH2 protein binds.
(§4) This means that the IC50 is a good measure of affinity and should be unaffected by concentration neurotrophin stimulant.
(§5) Cryopreserved PathHunter cells are used from either in-house produced batches or bulk batches bought directly from DiscoveRx. Cryopreserved cells are resuscitated, spun 1000 rpm for 4 min to remove freezing media, and resuspended in MEM+0.5% horse serum (both Invitrogen) to 5e^5 cells/ml. The cells are then plated using a Multidrop into Greiner white tissue culture treated plates at 20 ul/well and incubated for 24 h at 37° C., 5% CO2, high humidity. On the day of the assay, the cell plates are allowed to cool to room temperature for 30 min prior to the assay.
(§6) Plates containing 1 ul of serially diluted compound, standard and HPE/ZPE are diluted 1/66 in assay buffer (PBS minus Ca^2+, minus Mg^2+ with 0.05% pluronic F127) using a Wellmate. […] The plates are left at room temperature for a further 2 hours before addition of 10 ul of the DiscoveRx PathHunter detection reagent (made up by adding 1 part Galacton Star, 5 parts Emerald II and 19 parts Cell Assay Buffer as per the manufacturer's instructions).
(§7) After reagent addition, plates are covered and incubated at room temperature for 60 minutes. Luminescence signal is read using an Envision. Test compound data are expressed as percentage inhibition defined by HPE and ZPE values for each plate. Percentage inhibition in the presence of test compound is plotted against compound concentration on a log scale to determine an […] from the resultant sigmoid curve.
Target sequence in this assay (P04629 33-796): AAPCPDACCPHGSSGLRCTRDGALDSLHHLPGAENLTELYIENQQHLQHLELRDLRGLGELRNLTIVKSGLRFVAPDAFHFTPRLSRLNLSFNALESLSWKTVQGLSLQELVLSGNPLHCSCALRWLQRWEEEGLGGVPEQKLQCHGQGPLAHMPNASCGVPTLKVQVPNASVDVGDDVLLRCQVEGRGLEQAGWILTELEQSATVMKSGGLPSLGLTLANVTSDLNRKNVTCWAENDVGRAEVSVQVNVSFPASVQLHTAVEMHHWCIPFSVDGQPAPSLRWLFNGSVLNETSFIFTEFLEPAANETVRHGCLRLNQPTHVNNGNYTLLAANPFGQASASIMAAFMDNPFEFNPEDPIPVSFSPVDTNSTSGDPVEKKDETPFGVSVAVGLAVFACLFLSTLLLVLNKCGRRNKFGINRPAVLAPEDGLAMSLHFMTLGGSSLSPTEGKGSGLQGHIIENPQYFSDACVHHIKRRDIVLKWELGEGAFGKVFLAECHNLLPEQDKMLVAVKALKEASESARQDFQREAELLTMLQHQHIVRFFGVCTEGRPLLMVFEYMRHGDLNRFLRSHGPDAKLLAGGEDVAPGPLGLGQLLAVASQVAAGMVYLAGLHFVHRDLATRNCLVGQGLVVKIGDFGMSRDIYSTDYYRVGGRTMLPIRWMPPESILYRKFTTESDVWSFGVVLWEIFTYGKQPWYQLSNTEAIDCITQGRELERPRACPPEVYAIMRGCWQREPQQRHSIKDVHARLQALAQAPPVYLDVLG

MDR1 = MDR1 (Homo sapiens (Human), UniProt P08183); assay: MDCK-MDR1 assay (in vitro brain penetration); assay type: in vitro ADME; settings: human; for Papp B→A: read-out: MDCK MDR1 Papp BA; for Papp A→B: MDCK-MDR1, A to B, read-out: MDCK MDR1 Papp AB
Source text: MDCK-MDR1: MDCK-MDR1 data were collected according to the method described in “Are MDCK Cells Transfected with the Human MDR1 Gene a Good Model of the Human Intestinal Mucosa?”
http://www.springerlink.com/content/qfhqlqbr4fnp3 khf/fulltext.pdf

TRKC = TRKC (Homo sapiens (Human), UniProt Q16288); assay: Cell based DiscoveRx PathHunter antagonist assay, TRKC cell line; settings: read-out: TrkC cell potency
Protocol: as §1, §2, §3, §4, §5, §6, §7

TRKB [2] = molecular target: T2, TRKB (Homo sapiens (Human), UniProt Q16620); assay: cell-based; settings: TrkB cell potency, TRKB PathHunter cell line
Protocol: as §1, §2, §3, §4, §5, §6, §7

TRKA [3] = molecular target: T1, TRKA; assay: Isolated TRK enzyme assay (HTRF KinEASE-TK), TRKA; assay type: biochemical; settings: isolated TRKA enzyme; read-out: TrkA enzyme potency
Target sequence in this assay (P04629 441-796): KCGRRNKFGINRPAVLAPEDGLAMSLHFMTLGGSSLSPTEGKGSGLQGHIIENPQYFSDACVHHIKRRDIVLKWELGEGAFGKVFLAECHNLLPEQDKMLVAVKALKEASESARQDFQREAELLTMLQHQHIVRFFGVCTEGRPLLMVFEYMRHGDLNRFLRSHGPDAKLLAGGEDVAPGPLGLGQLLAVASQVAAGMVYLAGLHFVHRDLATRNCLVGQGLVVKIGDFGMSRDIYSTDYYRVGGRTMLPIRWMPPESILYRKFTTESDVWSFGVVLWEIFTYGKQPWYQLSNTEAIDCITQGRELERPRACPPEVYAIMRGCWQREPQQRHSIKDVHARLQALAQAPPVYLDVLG

TRKB [4] = molecular target: T2, TRKB; assay: biochemical
[5] = isolated TRKB enzyme, read-out: TrkB enzyme potency

Sequence of MDR1 (P08183 whole entry): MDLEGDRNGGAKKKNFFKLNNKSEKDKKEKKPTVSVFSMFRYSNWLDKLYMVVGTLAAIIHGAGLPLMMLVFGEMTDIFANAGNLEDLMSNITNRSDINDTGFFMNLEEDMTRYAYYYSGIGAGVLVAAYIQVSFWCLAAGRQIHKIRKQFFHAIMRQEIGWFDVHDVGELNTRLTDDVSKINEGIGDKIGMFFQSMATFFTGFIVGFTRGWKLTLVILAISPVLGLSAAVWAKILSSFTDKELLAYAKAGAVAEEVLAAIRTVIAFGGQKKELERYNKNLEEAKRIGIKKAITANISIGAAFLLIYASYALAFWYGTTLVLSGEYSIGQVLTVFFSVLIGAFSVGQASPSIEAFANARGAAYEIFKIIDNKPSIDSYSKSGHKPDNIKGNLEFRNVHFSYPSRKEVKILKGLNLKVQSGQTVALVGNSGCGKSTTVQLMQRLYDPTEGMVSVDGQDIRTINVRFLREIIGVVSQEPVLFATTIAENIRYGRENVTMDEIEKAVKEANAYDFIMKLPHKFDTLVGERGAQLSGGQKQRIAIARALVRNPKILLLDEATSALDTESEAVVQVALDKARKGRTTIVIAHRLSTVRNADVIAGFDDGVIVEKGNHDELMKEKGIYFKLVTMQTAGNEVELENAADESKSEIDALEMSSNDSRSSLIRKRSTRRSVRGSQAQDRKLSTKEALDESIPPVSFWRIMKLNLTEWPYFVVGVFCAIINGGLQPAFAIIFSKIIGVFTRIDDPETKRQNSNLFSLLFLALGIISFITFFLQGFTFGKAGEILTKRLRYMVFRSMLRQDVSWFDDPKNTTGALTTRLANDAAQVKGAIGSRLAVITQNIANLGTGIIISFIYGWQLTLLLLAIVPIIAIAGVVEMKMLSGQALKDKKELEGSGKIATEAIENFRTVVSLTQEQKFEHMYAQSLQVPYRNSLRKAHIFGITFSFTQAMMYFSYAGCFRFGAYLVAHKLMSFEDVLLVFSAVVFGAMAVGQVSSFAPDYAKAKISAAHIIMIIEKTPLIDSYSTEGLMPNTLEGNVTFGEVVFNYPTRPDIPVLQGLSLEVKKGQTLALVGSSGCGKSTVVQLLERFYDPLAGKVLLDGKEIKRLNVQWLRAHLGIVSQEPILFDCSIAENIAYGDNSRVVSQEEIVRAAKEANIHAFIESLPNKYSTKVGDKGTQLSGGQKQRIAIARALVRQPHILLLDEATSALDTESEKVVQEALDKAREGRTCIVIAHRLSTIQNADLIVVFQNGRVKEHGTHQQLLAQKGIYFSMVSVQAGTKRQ
T2 sequence (Q16620 32-822 limits assumed): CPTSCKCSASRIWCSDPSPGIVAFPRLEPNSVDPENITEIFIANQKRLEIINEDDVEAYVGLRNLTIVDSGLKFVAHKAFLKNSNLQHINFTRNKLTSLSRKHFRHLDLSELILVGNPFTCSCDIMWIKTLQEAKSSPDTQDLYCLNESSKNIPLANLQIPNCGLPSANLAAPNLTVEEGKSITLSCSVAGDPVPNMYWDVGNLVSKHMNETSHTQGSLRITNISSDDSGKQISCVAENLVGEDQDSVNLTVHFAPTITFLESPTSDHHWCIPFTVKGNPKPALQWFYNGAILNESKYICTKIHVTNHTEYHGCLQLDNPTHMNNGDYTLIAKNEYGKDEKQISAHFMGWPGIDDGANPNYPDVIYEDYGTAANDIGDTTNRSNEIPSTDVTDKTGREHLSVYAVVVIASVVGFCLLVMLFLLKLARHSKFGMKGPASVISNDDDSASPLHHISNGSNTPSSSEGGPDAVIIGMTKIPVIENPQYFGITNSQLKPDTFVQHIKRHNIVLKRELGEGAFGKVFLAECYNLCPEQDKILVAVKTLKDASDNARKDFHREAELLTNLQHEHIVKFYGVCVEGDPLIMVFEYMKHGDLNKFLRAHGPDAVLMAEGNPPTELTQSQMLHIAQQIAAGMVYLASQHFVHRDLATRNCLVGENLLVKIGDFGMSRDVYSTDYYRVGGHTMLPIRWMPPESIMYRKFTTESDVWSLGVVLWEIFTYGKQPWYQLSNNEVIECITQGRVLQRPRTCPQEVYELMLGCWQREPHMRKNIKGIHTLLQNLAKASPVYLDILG
Sequence of TRKC (Q16288 32-839): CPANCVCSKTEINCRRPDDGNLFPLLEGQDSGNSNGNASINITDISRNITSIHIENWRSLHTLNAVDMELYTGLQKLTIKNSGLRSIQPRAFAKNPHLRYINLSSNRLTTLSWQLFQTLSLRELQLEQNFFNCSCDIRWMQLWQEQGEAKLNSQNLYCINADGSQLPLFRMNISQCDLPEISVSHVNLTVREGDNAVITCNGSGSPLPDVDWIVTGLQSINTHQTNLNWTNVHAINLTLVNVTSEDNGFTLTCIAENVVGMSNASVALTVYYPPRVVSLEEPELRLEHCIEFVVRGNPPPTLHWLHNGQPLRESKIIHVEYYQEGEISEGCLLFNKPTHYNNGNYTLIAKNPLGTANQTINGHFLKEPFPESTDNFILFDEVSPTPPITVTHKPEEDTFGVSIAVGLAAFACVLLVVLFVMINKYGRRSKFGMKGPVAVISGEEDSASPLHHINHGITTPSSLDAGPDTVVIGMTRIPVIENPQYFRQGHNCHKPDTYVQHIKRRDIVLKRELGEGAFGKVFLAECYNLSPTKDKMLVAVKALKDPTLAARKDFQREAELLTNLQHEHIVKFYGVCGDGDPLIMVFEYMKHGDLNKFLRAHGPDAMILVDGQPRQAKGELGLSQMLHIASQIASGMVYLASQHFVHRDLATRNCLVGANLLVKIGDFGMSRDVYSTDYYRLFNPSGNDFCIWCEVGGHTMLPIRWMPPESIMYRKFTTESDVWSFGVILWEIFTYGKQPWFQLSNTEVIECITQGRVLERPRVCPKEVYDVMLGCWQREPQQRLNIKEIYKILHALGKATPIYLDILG

| pIC50 (TRKA [1]) | Papp B→A (MDR1; MDCK-MDR1, MDCK-MDR1, B to A) [×10⁻⁶ cm/s] | Papp A→B (MDR1) [×10⁻⁶ cm/s] | pIC50 (TRKC) | pIC50 (TRKB [2]) | pIC50 (TRKA [3]) | pIC50 (TRKB [4]; [5]) | Papp B→A (MDR1; MDCK-MDR1, B to A) [×10⁻⁶ cm/s] | pIC50 (TRKB [4]; TrkB enzyme potency) | SMILES |
| --- | --- | --- | --- | --- | --- | --- | --- | --- | --- |
| 7.64 | 11 | < 1 | 7.89 | 7.60 | 8.44 | 6.70 | – | – | CC(CO)n1cc(C(=O)c2cncc(NC(=O)Cc3ccc(Cl)cc3)c2)c2cnc(N)nc21 (single isomer, unassigned) [Example 34, N-(5-{[2-Amino-7-(2-hydroxy-1-methylethyl)-7H-pyrrolo[2,3-d]pyrimidin-5-yl]carbonyl}pyridin-3-yl)-2-(4-chlorophenyl)acetamide] |
| 8.68 | 20 | 5.6 | – | 9.10 | 7.96 | 7.39 | – | – | CC(C)(C)n1cc(C(=O)c2cncc(NC(=O)Cn3cc(C4CC4)cn3)c2)c2cncnc21 [Example 7, N-{5-[(7-tert-butyl-7H-pyrrolo[2,3-d]pyrimidin-5-yl)carbonyl]pyridin-3-yl}-2-(4-cyclopropyl-1H-pyrazol-1-yl)acetamide] |
| 7.17 | 3.1 | < 1 | – | 7.66 | 8.04 | 6.26 | – | – | C[C@@H](CO)n1cc(C(=O)c2cncc(NC(=O)Cn3ccc(C(F)(F)F)n3)c2)c2cncnc21 [Example 12, N-[5-({7-[(1S)-2-hydroxy-1-methylethyl]-7H-pyrrolo[2,3-d]pyrimidin-5-yl}carbonyl)pyridin-3-yl]-2-[3-(trifluoromethyl)-1H-pyrazol-1-yl]acetamide] |
| 5.95 | 1 | < 1 | – | 6.74 | 7.70 | 6.35 | – | – | C[C@@H](CO)n1cc(C(=O)c2cncc(NC(=O)Cn3cc(C(F)(F)F)nn3)c2)c2cncnc21 [Example 13, N-[5-({7-[(1S)-2-hydroxy-1-methylethyl]-7H-pyrrolo[2,3-d]pyrimidin-5-yl}carbonyl)pyridin-3-yl]-2-[4-(trifluoromethyl)-1H-1,2,3-triazol-1-yl]acetamide] |
| 6.84 | – | < 1 | – | 7.40 | 7.77 | – | 15 | 6.29 | C[C@@H](CO)n1cc(C(=O)c2cncc(NC(=O)Cn3nc4ccccc4n3)c2)c2cncnc21 [Example 15, 2-(2H-benzotriazol-2-yl)-N-[5-({7-[(1S)-2-hydroxy-1-methylethyl]-7H-pyrrolo[2,3-d]pyrimidin-5-yl}carbonyl)pyridin-3-yl]acetamide] |
| 5.74 | – | < 1 | – | 6.69 | 6.60 | – | 8.5 | 5.26 | C[C@H](CO)n1cc(C(=O)c2cncc(NC(=O)Cc3ccc(F)cn3)c2)c2cncnc21 [Example 19, 2-(5-fluoropyridin-2-yl)-N-[5-({7-[(1R)-2-hydroxy-1-methylethyl]-7H-pyrrolo[2,3-d]pyrimidin-5-yl}carbonyl)pyridin-3-yl]acetamide] |
| 7.66 | 17 | < 1 | – | 7.72 | 7.85 | 6.20 | – | – | C[C@H](CO)n1cc(C(=O)c2cncc(NC(=O)Cc3ccc(C(F)(F)F)cc3)c2)c2cncnc21 [Example 20, N-[5-({7-[(1R)-2-hydroxy-1-methylethyl]-7H-pyrrolo[2,3-d]pyrimidin-5-yl}carbonyl)pyridin-3-yl]-2-[4-(trifluoromethyl)phenyl]acetamide] |
| 7.19 | 13 | < 1 | – | 7.72 | 7.62 | 6.36 | – | – | CC(CO)n1cc(C(=O)c2cncc(NC(=O)Cn3cc(C4CC4)cn3)c2)c2cncnc21 (stereo not shown) [Example 25, 2-(4-Cyclopropyl-1H-pyrazol-1-yl)-N-(5-{[7-(2-hydroxy-1-methylethyl)-7H-pyrrolo[2,3-d]pyrimidin-5-yl]carbonyl}pyridin-3-yl)acetamide] |
| 8.57 | – | < 1 | – | 8.72 | 8.31 | – | 20 | 7.12 | CC(C)(CO)n1cc(C(=O)c2cncc(NC(=O)Cc3ccc(Cl)cc3)c2)c2cncnc21 [Example 28, 2-(4-chlorophenyl)-N-(5-{[7-(2-hydroxy-1,1-dimethylethyl)-7H-pyrrolo[2,3-d]pyrimidin-5-yl]carbonyl}pyridin-3-yl)acetamide] |
| 8.24 | – | 1.3 | – | 8.40 | 8.55 | – | 23 | 7.17 | CC(C)(CO)n1cc(C(=O)c2cncc(NC(=O)Cc3ccc(Cl)cn3)c2)c2cncnc21 [Example 29, 2-(5-chloropyridin-2-yl)-N-(5-{[7-(2-hydroxy-1,1-dimethylethyl)-7H-pyrrolo[2,3-d]pyrimidin-5-yl]carbonyl}pyridin-3-yl)acetamide] |
| 7.96 | – | < 1 | – | 8.12 | 8.40 | – | 15 | 7.01 | CC(C)(CO)n1cc(C(=O)c2cncc(NC(=O)Cn3ccc(C(F)(F)F)n3)c2)c2cncnc21 [Example 30, N-(5-{[7-(2-hydroxy-1,1-dimethylethyl)-7H-pyrrolo[2,3-d]pyrimidin-5-yl]carbonyl}pyridin-3-yl)-2-[3-(trifluoromethyl)-1H-pyrazol-1-yl]acetamide] |
| 8.70 | 24 | 1 | – | 8.80 | 8.24 | 7.02 | – | – | CC(C)(CO)n1cc(C(=O)c2cncc(NC(=O)Cn3cc(C4CC4)cn3)c2)c2cncnc21 [Example 33, 2-(4-cyclopropyl-1H-pyrazol-1-yl)-N-(5-{[7-(2-hydroxy-1,1-dimethylethyl)-7H-pyrrolo[2,3-d]pyrimidin-5-yl]carbonyl}pyridin-3-yl)acetamide] |
| 7.46 | 21 | < 1 | – | 7.89 | 7.60 | 7.57 | – | – | Cc1cc(C(F)(F)F)nn1CC(=O)Nc1cncc(C(=O)c2cn(C(C)(C)CO)c3nc(N)ncc23)c1 [Example 47, N-(5-{[2-Amino-7-(2-hydroxy-1,1-dimethylethyl)-7H-pyrrolo[2,3-d]pyrimidin-5-yl]carbonyl}pyridin-3-yl)-2-[5-methyl-3-(trifluoromethyl)-1H-pyrazol-1-yl]acetamide] |
| 8.00 | 24 | < 1 | – | 8.68 | 8.18 | 6.84 | – | – | CC(C)(CO)n1cc(C(=O)c2cncc(NC(=O)Cc3ccc(F)cc3F)c2)c2cnc(N)nc21 [Example 50, N-(5-{[2-amino-7-(2-hydroxy-1,1-dimethylethyl)-7H-pyrrolo[2,3-d]pyrimidin-5-yl]carbonyl}pyridin-3-yl)-2-(2,4-difluorophenyl)acetamide] |
| 7.92 | – | < 1 | – | 8.35 | 8.15 | – | 20 | 6.75 | CC(C)(CO)n1cc(C(=O)c2cncc(NC(=O)Cn3nc4ccccc4n3)c2)c2cnc(N)nc21 [Example 55, N-(5-{[2-Amino-7-(2-hydroxy-1,1-dimethylethyl)-7H-pyrrolo[2,3-d]pyrimidin-5-yl]carbonyl}pyridin-3-yl)-2-(2H-benzotriazol-2-yl)acetamide] |
| 6.35 | – | 1.1 | – | 6.29 | 8.02 | – | 1 | 6.02 | CC(C)(CO)n1cc(C(=O)c2cncc(NC(=O)Cn3cc(C4CC4)nn3)c2)c2cnc(N)nc21 [Example 56, N-(5-{[2-Amino-7-(2-hydroxy-1,1-dimethylethyl)-7H-pyrrolo[2,3-d]pyrimidin-5-yl]carbonyl}pyridin-3-yl)-2-(4-cyclopropyl-1H-1,2,3-triazol-1-yl)acetamide] |
